In publication PMC5775429, “LY2087101 and dFBr share transmembrane binding sites in the (α4)3(β2)2 Nicotinic Acetylcholine Receptor” (Scientific Reports, 2018):
Several values for one entry are separate records, joined by “and”; a condition that tells them apart may be missing. Identical values can stand only once.

Legend:
Assay in all cases: Two-electrode voltage-clamp of ACh-induced currents in Xenopus oocytes
Type in all cases: cell-based
(α4L311V)3(β2)2 nAChR = (α4L311V)3(β2)2 nAChR (Homo sapiens, UniProt P43681, L311V); conditions: 10 µM ACh + 1 µM PAM vs 10 µM ACh alone
Sequence of (α4L311V)3(β2)2 nAChR (P43681 29-627 L311V limits assumed): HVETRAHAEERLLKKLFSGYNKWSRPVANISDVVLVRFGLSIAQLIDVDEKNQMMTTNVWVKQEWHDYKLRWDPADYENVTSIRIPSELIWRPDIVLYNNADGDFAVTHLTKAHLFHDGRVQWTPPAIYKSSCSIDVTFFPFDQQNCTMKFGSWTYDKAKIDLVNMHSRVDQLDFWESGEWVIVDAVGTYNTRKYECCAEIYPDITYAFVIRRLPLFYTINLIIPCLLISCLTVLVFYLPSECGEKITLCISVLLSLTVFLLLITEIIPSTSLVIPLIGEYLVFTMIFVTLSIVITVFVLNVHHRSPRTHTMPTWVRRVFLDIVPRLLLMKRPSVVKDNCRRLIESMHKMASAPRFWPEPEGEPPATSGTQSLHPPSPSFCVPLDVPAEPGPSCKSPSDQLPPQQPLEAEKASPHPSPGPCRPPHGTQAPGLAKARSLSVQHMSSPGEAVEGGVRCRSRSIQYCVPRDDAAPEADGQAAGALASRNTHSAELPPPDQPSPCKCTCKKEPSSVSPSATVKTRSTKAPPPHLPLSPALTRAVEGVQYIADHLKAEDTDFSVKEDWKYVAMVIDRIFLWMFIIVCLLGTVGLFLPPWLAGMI
Sequence of (α4L311V)3(β2)2 nAChR (P17787 26-502 partner): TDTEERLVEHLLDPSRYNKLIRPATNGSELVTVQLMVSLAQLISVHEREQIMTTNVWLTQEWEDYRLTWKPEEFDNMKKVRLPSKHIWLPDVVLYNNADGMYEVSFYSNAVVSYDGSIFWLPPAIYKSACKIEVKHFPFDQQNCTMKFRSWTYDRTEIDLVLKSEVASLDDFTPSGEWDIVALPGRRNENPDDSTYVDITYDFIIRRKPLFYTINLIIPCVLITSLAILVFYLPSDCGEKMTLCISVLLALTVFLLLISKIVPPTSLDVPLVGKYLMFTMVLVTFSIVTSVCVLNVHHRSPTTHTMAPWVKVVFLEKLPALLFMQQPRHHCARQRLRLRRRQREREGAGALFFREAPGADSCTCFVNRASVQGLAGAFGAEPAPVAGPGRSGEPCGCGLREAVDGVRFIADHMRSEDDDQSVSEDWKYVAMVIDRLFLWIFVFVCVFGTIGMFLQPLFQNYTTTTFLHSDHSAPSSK
Method: (§1) For amino acid substitutions within the α4 nAChR subunit, point mutations were introduced into pSP64ployA plasmid with cDNA encoding for human α4 nAChR subunit with mutagenic primer pairs using the Quick Change II Site-Directed Mutagenesis Kit (Agilent Technologies) then confirmed by DNA sequencing (GENEWIZ, LLC, South Plainfield, NJ). cRNA transcripts suitable for oocyte expression were prepared in vitro from linearized plasmids [α3 (BamH1), α4 (AseI), β2 (PvuII), β4 (XhoI)] using mMESSAGE mMACHINE high yield capped RNA transcription kits (Ambion) and purified on NucAway Spin column (Invitrogen). cRNA concentration was determined by spectroscopy (Concentration (ug/ul) = Abs260 * 40), aliquoted and stored at −80 °C until used.
(§2) Ovarian lobules were surgically harvested from oocytes-positive female Xenopus laevis (NASCO, Fort Atkinson, WI) according to an animal use protocol approved by the Texas A&M Health Sciences Center Institutional Animals Care and Use Committee. The Texas A&M Health Sciences Center Research Facility is registered as an animal research facility with the United States Department of Agriculture and is fully accredited by the American Association for Accreditation of Laboratory Animal Care (AAALAC). For oocytes defolliculation, ovarian lobes were treated with 3 mg/ml collagenase type 2 (Worthington Biomedical, Lakewood, NJ) in Ca + 2-free buffer (85 mM NaCl, 2.5 mM KCl, 1 mM MgCl2, 5 mM HEPES, pH 7.6). Collagenase treatment was allowed to proceed for 3 hours at room temperature with gentle shaking then oocytes were washed several times with buffer to remove collagenase then with ND96-gentamicine buffer. Healthy Stage V and VI oocytes were visually selected and maintained at 18 °C in modified ND96-gentamicine buffer (96 mM NaCl, 2 mM KCl, 1.8 mM CaCl2, 1 mM MgCl2, 5 mM HEPES, 50 µg/ml gentamicin, pH 7.6). Oocytes were injected with 50–100 ng of the desired nAChR subunits cRNA mix at ratios of 8α:1β or 1α:8β to express nAChRs with subunit stoichiometries of 3α:2β (low agonist sensitivity) or 2α:3β (high agonist sensitivity), respectively.
(§3) Oocytes were continuously perfused with recording buffer (100 mM NaCl, 2 mM KCl, 1 mM CaCl2, 0.8 mM MgCl2, 1 mM EGTA, 10 mM Hepes, pH 7.5) except during periods of drug applications.

(α4I607T)3(β2)2 nAChR = target: T1, (α4I607T)3(β2)2 nAChR (Homo sapiens, UniProt P17787+P43681, I607T); conditions: 10 µM ACh + 1 µM PAM vs 10 µM ACh alone
T1 construct: expressed in transfected cells; host or cells: Xenopus laevis oocytes injected with cRNA
T1 sequence (P43681 29-627 I607T limits assumed): as the sequence (P43681 29-627 L311V limits assumed) above, with V283L, I579T counted along it
T1 sequence (P17787 26-502): as the sequence (P17787 26-502 partner) above
Method: as §1, §2, §3

(α4E308V)3(β2)2 nAChR = (α4E308V)3(β2)2 nAChR (Homo sapiens, UniProt P43681, E308V)
Sequence of (α4E308V)3(β2)2 nAChR (P43681 29-627 E308V limits assumed): as the sequence (P43681 29-627 L311V limits assumed) above, with E280V, V283L counted along it
Sequence of (α4E308V)3(β2)2 nAChR (P17787 26-502 partner): as the sequence (P17787 26-502 partner) above
Method: as §1, §2, §3

(α4T261D)3(β2)2 nAChR = target: T2, (α4T261D)3(β2)2 nAChR (Homo sapiens, UniProt P17787+P43681, T261D); conditions: 10 µM ACh + 1 µM PAM vs 10 µM ACh alone
T2 construct: expressed in transfected cells; host or cells: Xenopus laevis oocytes injected with cRNA
T2 sequence (P43681 29-627 T261D limits assumed): as the sequence (P43681 29-627 L311V limits assumed) above, with T233D, V283L counted along it
T2 sequence (P17787 26-502): as the sequence (P17787 26-502 partner) above
Method: as §1, §2, §3

(α4M605I)3(β2)2 nAChR = target: T3, (α4M605I)3(β2)2 nAChR (Homo sapiens, UniProt P17787+P43681, M605I); conditions: 10 µM ACh + 1 µM PAM vs 10 µM ACh alone
T3 construct: expressed in transfected cells; host or cells: Xenopus laevis oocytes injected with cRNA
T3 sequence (P43681 29-627 M605I limits assumed): as the sequence (P43681 29-627 L311V limits assumed) above, with V283L, M577I counted along it
T3 sequence (P17787 26-502): as the sequence (P17787 26-502 partner) above
Method: as §1, §2, §3

(α4L256F)3(β2)2 nAChR = (α4L256F)3(β2)2 nAChR (Homo sapiens, UniProt P43681, L256F)
Sequence of (α4L256F)3(β2)2 nAChR (P43681 29-627 L256F limits assumed): as the sequence (P43681 29-627 L311V limits assumed) above, with L228F, V283L counted along it
Sequence of (α4L256F)3(β2)2 nAChR (P17787 26-502 partner): as the sequence (P17787 26-502 partner) above
Method: as §1, §2, §3

(α4F606Y)3(β2)2 nAChR = target: T4, (α4F606Y)3(β2)2 nAChR (Homo sapiens, UniProt P17787+P43681, F606Y)
T4 construct: expressed in transfected cells; host or cells: Xenopus laevis oocytes injected with cRNA
T4 sequence (P43681 29-627 F606Y limits assumed): as the sequence (P43681 29-627 L311V limits assumed) above, with V283L, F578Y counted along it
T4 sequence (P17787 26-502): as the sequence (P17787 26-502 partner) above
Method: as §1, §2, §3

(α4C259V)3(β2)2 nAChR = (α4C259V)3(β2)2 nAChR (Homo sapiens, UniProt P43681, C259V); conditions: 10 µM ACh + 1 µM PAM vs 10 µM ACh alone
Sequence of (α4C259V)3(β2)2 nAChR (P43681 29-627 C259V limits assumed): as the sequence (P43681 29-627 L311V limits assumed) above, with C231V, V283L counted along it
Sequence of (α4C259V)3(β2)2 nAChR (P17787 26-502 partner): as the sequence (P17787 26-502 partner) above
Method: as §1, §2, §3

(α4I275V)3(β2)2 nAChR = target: T5, (α4I275V)3(β2)2 nAChR (Homo sapiens, UniProt P17787+P43681, I275V); conditions: 10 µM ACh + 1 µM PAM vs 10 µM ACh alone
T5 construct: expressed in transfected cells; host or cells: Xenopus laevis oocytes injected with cRNA
T5 sequence (P43681 29-627 I275V limits assumed): as the sequence (P43681 29-627 L311V limits assumed) above, with I247V, V283L counted along it
T5 sequence (P17787 26-502): as the sequence (P17787 26-502 partner) above
Method: as §1, §2, §3

(α4G613L)3(β2)2 nAChR = (α4G613L)3(β2)2 nAChR (Homo sapiens, UniProt P43681, G613L)
Sequence of (α4G613L)3(β2)2 nAChR (P43681 29-627 G613L limits assumed): as the sequence (P43681 29-627 L311V limits assumed) above, with V283L, G585L counted along it
Sequence of (α4G613L)3(β2)2 nAChR (P17787 26-502 partner): as the sequence (P17787 26-502 partner) above
Method: as §1, §2, §3

(α4F316L)3(β2)2 nAChR = (α4F316L)3(β2)2 nAChR (Homo sapiens, UniProt P43681, F316L)
Sequence of (α4F316L)3(β2)2 nAChR (P43681 29-627 F316L limits assumed): as the sequence (P43681 29-627 L311V limits assumed) above, with V283L, F288L counted along it
Sequence of (α4F316L)3(β2)2 nAChR (P17787 26-502 partner): as the sequence (P17787 26-502 partner) above
Method: as §1, §2, §3

(α4L260M)3(β2)2 nAChR = target: T6, (α4L260M)3(β2)2 nAChR (Homo sapiens, UniProt P17787+P43681, L260M)
T6 construct: expressed in transfected cells; host or cells: Xenopus laevis oocytes injected with cRNA
T6 sequence (P43681 29-627 L260M limits assumed): as the sequence (P43681 29-627 L311V limits assumed) above, with L232M, V283L counted along it
T6 sequence (P17787 26-502): as the sequence (P17787 26-502 partner) above
Method: as §1, §2, §3

(α4L291V)3(β2)2 nAChR = target: T7, (α4L291V)3(β2)2 nAChR (Homo sapiens, UniProt P17787+P43681, L291V)
T7 construct: expressed in transfected cells; host or cells: Xenopus laevis oocytes injected with cRNA
T7 sequence (P43681 29-627 L291V limits assumed): as the sequence (P43681 29-627 L311V limits assumed) above, with L263V, V283L counted along it
T7 sequence (P17787 26-502): as the sequence (P17787 26-502 partner) above
Method: as §1, §2, §3

(α4C259F)3(β2)2 nAChR = (α4C259F)3(β2)2 nAChR (Homo sapiens, UniProt P43681, C259F); conditions: 10 µM ACh + 1 µM PAM vs 10 µM ACh alone
Sequence of (α4C259F)3(β2)2 nAChR (P43681 29-627 C259F limits assumed): as the sequence (P43681 29-627 L311V limits assumed) above, with C231F, V283L counted along it
Sequence of (α4C259F)3(β2)2 nAChR (P17787 26-502 partner): as the sequence (P17787 26-502 partner) above
Method: as §1, §2, §3

(α4H332Y)3(β2)2 nAChR = target: T8, (α4H332Y)3(β2)2 nAChR (Homo sapiens, UniProt P17787+P43681, H332Y); conditions: 10 µM ACh + 1 µM PAM vs 10 µM ACh alone
T8 construct: expressed in transfected cells; host or cells: Xenopus laevis oocytes injected with cRNA
T8 sequence (P43681 29-627 H332Y limits assumed): as the sequence (P43681 29-627 L311V limits assumed) above, with V283L, H304Y counted along it
T8 sequence (P17787 26-502): as the sequence (P17787 26-502 partner) above
Method: as §1, §2, §3

α4β4 nAChR = target: T9, α4β4 nAChR (Homo sapiens, UniProt P30926+P43681); conditions: 1 μM PAM
T9 construct: expressed in transfected cells; host or cells: Xenopus laevis oocytes injected with cRNA
T9 sequence (P43681 29-627 limits assumed): as the sequence (P43681 29-627 L311V limits assumed) above, with V283L counted along it
T9 sequence (P30926 22-498): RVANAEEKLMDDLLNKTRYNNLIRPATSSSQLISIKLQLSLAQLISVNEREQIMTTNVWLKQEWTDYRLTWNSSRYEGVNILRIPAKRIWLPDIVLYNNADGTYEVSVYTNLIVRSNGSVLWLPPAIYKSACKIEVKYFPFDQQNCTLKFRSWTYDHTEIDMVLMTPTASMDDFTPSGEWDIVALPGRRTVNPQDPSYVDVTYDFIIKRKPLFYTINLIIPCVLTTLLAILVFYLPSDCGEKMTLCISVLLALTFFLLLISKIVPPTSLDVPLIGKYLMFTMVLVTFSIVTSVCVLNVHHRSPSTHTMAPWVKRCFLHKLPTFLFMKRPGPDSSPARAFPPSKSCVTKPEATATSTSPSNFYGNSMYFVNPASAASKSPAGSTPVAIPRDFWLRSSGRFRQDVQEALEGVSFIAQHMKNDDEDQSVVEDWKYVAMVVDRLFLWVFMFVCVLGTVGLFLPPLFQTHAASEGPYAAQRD
Method: (§4) Next, Xenopus oocytes were injected with RNA mixes of […], α3:β4, […], or α4:β4 at ratios of 8:1, 1:1, or 1:8 to express nAChRs with different subunit composition and with various α:β ratios.
as §2, §3

α4β2 nAChR = target: T10, α4β2 nAChR (Homo sapiens, UniProt P17787+P43681); conditions: 1 μM PAM
T10 construct: expressed in transfected cells; host or cells: Xenopus laevis oocytes injected with cRNA
T10 sequence (P43681 29-627 limits assumed): as the sequence (P43681 29-627 L311V limits assumed) above, with V283L counted along it
T10 sequence (P17787 26-502): as the sequence (P17787 26-502 partner) above
Method: as §4, §2, §3

[1] = 10 µM ACh + 1 µM PAM vs 10 µM ACh alone
[2] = ACh concentration-response curve, normalized to 1 mM ACh alone
[3] = read-out: inhibition of ACh-current response at 10 μM dFBr

Compound: C=CC(C)(C)c1[nH]c2cc(Br)ccc2c1CCNC [dFBr]
- R, potentiation ratio (PR) ((α4L311V)3(β2)2 nAChR): 5.8 ± 1.4
- R, potentiation ratio (PR) ((α4I607T)3(β2)2 nAChR): 4.7 ± 2.1
- R, potentiation ratio (PR) ((α4E308V)3(β2)2 nAChR; [1]): 1.0 and 1.0 ± 0.1
- ACh Imax in the presence of 1 µM dFBr ((α4E308V)3(β2)2 nAChR; [2]): 110 ± 06%
- dFBr concentration-dependent potentiation of ACh-current responses ((α4E308V)3(β2)2 nAChR; dFBr up to 10 µM, 10 μM ACh): did not potentiate
- inhibition at 10 µM ((α4E308V)3(β2)2 nAChR; [3]): ~45%
- R, potentiation ratio (PR) ((α4T261D)3(β2)2 nAChR): ~ 2.1 and 2.1 ± 0.1
- R, potentiation ratio (PR) ((α4M605I)3(β2)2 nAChR): 4.5 ± 0.3
- R, potentiation ratio (PR) ((α4L256F)3(β2)2 nAChR; [1]): 1.0 and ~ 1 and 1.0 ± 0.1
- ACh Imax in the presence of 1 µM dFBr ((α4L256F)3(β2)2 nAChR; [2]): 142 ± 08%
- dFBr concentration-dependent potentiation of ACh-current responses ((α4L256F)3(β2)2 nAChR; dFBr up to 10 µM, 10 μM ACh): did not potentiate
- inhibition at 10 µM ((α4L256F)3(β2)2 nAChR; [3]): ~25%
- R, potentiation ratio (PR) ((α4F606Y)3(β2)2 nAChR; [1]): 3.1 ± 0.4
- ACh Imax in the presence of 1 µM dFBr ((α4F606Y)3(β2)2 nAChR; [2]): 159 ± 07%
- R, potentiation ratio (PR) ((α4C259V)3(β2)2 nAChR): 4.6 ± 0.9
- R, potentiation ratio (PR) ((α4I275V)3(β2)2 nAChR): 4.0 ± 0.6
- R, potentiation ratio (PR) ((α4G613L)3(β2)2 nAChR; [1]): 0.8 and 0.8 ± 0.1
- ACh Imax in the presence of 1 µM dFBr ((α4G613L)3(β2)2 nAChR; [2]): 157 ± 19%
- dFBr concentration-dependent potentiation of ACh-current responses ((α4G613L)3(β2)2 nAChR; dFBr up to 10 µM, 10 μM ACh): did not potentiate
- inhibition at 10 µM ((α4G613L)3(β2)2 nAChR; [3]): ~65%
- R, potentiation ratio (PR) ((α4F316L)3(β2)2 nAChR; [1]): 1.2 and ~ 1.2 and 1.2 ± 0.1
- ACh Imax in the presence of 1 µM dFBr ((α4F316L)3(β2)2 nAChR; [2]): 148 ± 12%
- dFBr concentration-dependent potentiation of ACh-current responses ((α4F316L)3(β2)2 nAChR; dFBr up to 10 µM, 10 μM ACh): did not potentiate
- R, potentiation ratio (PR) ((α4L260M)3(β2)2 nAChR; [1]): 3.6 ± 0.4
- ACh Imax in the presence of 1 µM dFBr ((α4L260M)3(β2)2 nAChR; [2]): 250 ± 36%
- R, potentiation ratio (PR) ((α4L291V)3(β2)2 nAChR; [1]): 3.5 ± 0.2
- dFBr potentiation h (Hill coefficient) ((α4L291V)3(β2)2 nAChR; co-applied with 10 μM ACh): 0.8 ± 0.2
- dFBr potentiation Imax ((α4L291V)3(β2)2 nAChR; normalized to 10 µM ACh alone): 600 ± 136%
- EC50 ((α4L291V)3(β2)2 nAChR; read-out: dFBr potentiation EC50): 2900 ± 1900 nM
- R, potentiation ratio (PR) ((α4C259F)3(β2)2 nAChR): 3.1 ± 0.3
- R, potentiation ratio (PR) ((α4H332Y)3(β2)2 nAChR): 5.5 ± 0.4
- potentiation of ACh responses (α4β4 nAChR): did not potentiate
- potentiation of ACh responses (α4β2 nAChR): potentiated
